Measured values taken from patent US8703438B2, “Ligand binding stabilization method for drug target identification” (The Regents of the University of California, priority 2008, dated 2014).

Tests used:
Type in all cases: binding
TAP-tagged Tif1 (eIF4A) = target: T1, TAP-tagged Tif1 (eIF4A) (Saccharomyces cerevisiae, UniProt P10081); experiment: DARTS western blot with TAP-tagged eIF4A yeast strain; details: FIG. 10
T1 construct: endogenous in cells; host or cells: TAP-tagged eIF4A yeast strain (Ghaemmaghami et al. 2003 collection)
T1 sequence (P10081 1-395): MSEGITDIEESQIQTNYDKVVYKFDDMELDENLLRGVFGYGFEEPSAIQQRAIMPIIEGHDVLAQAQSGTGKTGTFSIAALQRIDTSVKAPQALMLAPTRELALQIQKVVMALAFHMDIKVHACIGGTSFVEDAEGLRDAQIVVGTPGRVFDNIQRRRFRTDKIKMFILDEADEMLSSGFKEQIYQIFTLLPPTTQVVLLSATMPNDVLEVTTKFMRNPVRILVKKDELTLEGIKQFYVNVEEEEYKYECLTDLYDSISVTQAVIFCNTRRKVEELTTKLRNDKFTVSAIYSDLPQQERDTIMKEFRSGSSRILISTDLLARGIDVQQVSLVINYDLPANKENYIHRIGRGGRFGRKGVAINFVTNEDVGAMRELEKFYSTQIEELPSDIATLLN
From the text: FIG. 4A: Chemical structure of resveratrol. FIG. 4B: Yeast cell lysates and human HeLa cell lysates were each treated with resveratrol in vitro followed by thermolysin digestion and silver staining. Protected bands of similar size were detected. FIG. 4C: Resveratrol protects TAP-tagged eIF4A, but not an unrelated Htb2, protein from proteolysis. Arrow: protein protected from subtilisin proteolysis (H. sapiens (SEQ ID NO:1), M. musculus (SEQ ID NO:2), X. laevis (SEQ ID NO:3), D. melanogaster (SEQ ID NO:4), C. elegans (SEQ ID NO:5), S. purpuratus (SEQ ID NO:6), C. reinhardtii (SEQ ID NO:7), A. thaliana (SEQ ID NO:8), H. andersenii (SEQ ID NO:9), S. cerevisiae (SEQ ID NO:10)). FIG. 4D: Resveratrol inhibits eIF4A-dependent translation in HEK 293 cells as assayed by bicistronic translation reporters. […] FIG. 4E: eIF4A is required for longevity in resveratrol-treated animals. Resveratrol (50 μM) lengthens the lifespan of wild-type N2 worms fed control (gfp) RNAi (green), but not worms fed eIF4A (inf-1) RNAi (red) or daf-16 RNAi (blue). gfp(RNAi), mVeh=19 (n=74), mRSV=20 (n=78), P=0.0006***; inf-1(RNAi), mVeh=26 (n=76), mRSV=24 (n=79), P=0.4687; daf-16(RNAi), mVeh=17 (n=78), mRSV=17 (n=76), P=0.3305. m, mean lifespan (days of adulthood); n, number of animals tested.
Arrow: protein protected from proteolysis. […]

[1] = target: T2, proteins of S. cerevisiae BY4742 cell lysates (Saccharomyces cerevisiae, UniProt P10081); experiment: DARTS with yeast cell lysates incubated in vitro with resveratrol, mass spectrometry of protected bands; details: 1 mM resveratrol, Upper band
T2 construct: endogenous in cells; host or cells: S. cerevisiae BY4742
Description: (§1) For DARTS using yeast cell lysates incubated in vitro with resveratrol (FIG. 4B), S. cerevisiae BY4742 cells were used.
(§2) Gel bands were cut out and prepared for mass spec analysis with trypsin digestion as described in SI. Peptides were analyzed by LC/MS/MS on a Thermo LTQ-Orbitrap mass spectrometer with an Eksigent LC pump. For quantitative comparison of protein and peptide abundances, MS spectra were analyzed using the differential workflow of Rosetta Elucidator (Rosetta Inpharmatics) (54). Annotation was performed using PeptideTeller and ProteinTeller (see SI).
(§3) Proteins were initially identified by searching the spectra against the human International Protein Index database (version 3.46) and the S. cerevisiae Swissprot database (May 2008) using the SEQUEST algorithm (Eng et al. (1994) J Am Soc Mass Spectrom 5: 976-989) integrated into the Bioworks software package. Each peptide met the following criteria: XCorr ≧2 (+1), ≧3 (+2), ≧4 (+3), ≧5 (+4), and DeltaCN>0.1. For quantitative comparison of protein and peptide abundances, MS spectra were analyzed using the differential workflow of the Rosetta Elucidator software system (Rosetta Inpharmatics) (Neubert et al. (2008) J Proteome Res 7: 2270-2279). Annotation was performed using PeptideTeller and ProteinTeller with a minimum probability of 0.99 and predicted error of 0.0. Protein ratio data were generated with a P-value cutoff of 0.01 for all proteins with a peptide number >1. Intensity scaling was performed against the mean of feature signals, with 10% of outliers removed from the baseline dataset. Similar results were obtained in analysis without intensity scaling (FIG. 9A).
(§4) For the DARTS experiment using yeast cell lysates incubated in vitro with resveratrol, BY4742 cells were suspended in yeast extraction buffer (Grant et al. (1999) Meth. Mol Biol 119: 311-317) [(40 mM HEPES/KOH pH 7.5, 350 mM NaCl, 0.5 mM DTT, 10% glycerol, 0.1% Tween-20) supplemented with Roche complete protease inhibitor cocktail (Roche Diagnostics, Indianapolis, Ind.)]. Cell pellets were broken with glass beads for 2×40 s at 4° C. in a FastPrep-24 (MP Biomedicals, Solon, Ohio). Whole cell lysates were collected after centrifugation (1500 rpm, 10 min). Lysates were incubated with ethanol control or 1 mM resveratrol for 30 min at room temperature. Samples were then divided into two aliquots, which underwent proteolysis with thermolysin or mock proteolysis.

[2] = tested on: proteins of S. cerevisiae BY4742 cell lysates; experiment: as above; details: 1 mM resveratrol
Description: as §1, §2, §3, §4

Oc1ccc(C=Cc2cc(O)cc(O)c2)cc1 [resveratrol] was tested, and the “protection of TAP-tagged Tif1 from proteolysis” value (TAP-tagged Tif1 (eIF4A)) was “protects the TAP-tagged Tif1”, the “Fold Change, ATP-dependent RNA helicase eIF4A” value [1] was 1.961 and the “Fold Change, 40S ribosomal protein S12” value ([2]; Lower band) was 2.07. The “Fold Change, 40S ribosomal protein S15” value ([2]; Lower band) was 3.677, the “Fold Change, 40S ribosomal protein S16” value ([2]; Lower band) was 2.906 and the “Fold Change, 40S ribosomal protein S18” value ([2]; Lower band) was 2.412. The “Fold Change, 40S ribosomal protein S19” value ([2]; Lower band) was 1.965, the “Fold Change, 40S ribosomal protein S24” value ([2]; Lower band) was 1.481 and the “Fold Change, 40S ribosomal protein S26-B” value ([2]; Lower band) was 2.429. The “Fold Change, 60S ribosomal protein L14-A” value ([2]; Lower band) was 1.614, the “Fold Change, 60S ribosomal protein L25” value ([2]; Lower band) was 3.564 and the “Fold Change, 60S ribosomal protein L26-A” value ([2]; Lower band) was 9.181. For the same compound, the “Fold Change, 60S ribosomal protein L26-B” value ([2]; Lower band) was 11.107, the “Fold Change, 60S ribosomal protein L34” value ([2]; Lower band) was 2.383 and the “Fold Change, 60S ribosomal protein L35” value ([2]; Lower band) was 3.774. The “Fold Change, Histone H2A” value ([2]; Lower band) was 3.002, the “Fold Change, Histone H2B” value ([2]; Lower band) was 2.229 and the “Fold Change, Ornithine aminotransferase” value ([2]; Lower band) was 2.531. The “Fold Change, 40S ribosomal protein S23” value ([2]; Upper band) was 4.84, the “Fold Change, 40S ribosomal protein S26” value ([2]; Upper band) was 4.701 and the “Fold Change, 60S ribosomal protein L21-A” value ([2]; Upper band) was 2.777. The “Fold Change, 60S ribosomal protein L24” value ([2]; Upper band) was 6.05, the “Fold Change, 60S ribosomal protein L25” value ([2]; Upper band) was 2.713 and the “Fold Change, 60S ribosomal protein L27-A” value ([2]; Upper band) was 2.554. The “Fold Change, 60S ribosomal protein L28” value ([2]; Upper band) was 1.804.
